Measurements taken from ChEMBL document CHEMBL1201862, “PubChem BioAssay data set” (2004).
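Step 1: Grow cells in 96-well plates. Step 2: Expose to compound for 48 hours at 5 concentrations. Step 3: Interpolate endpoints linearly; if unreached, use highest concentration. At the GI50, growth is halved.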 Activity calls are given as the source filed them. Cut-off read from the data, not from the text of the source: active = GI50 up to about 1.1 µM and inactive = higher.

Key:
Assay in all cases: inhibition of tumour cell growth, NCI panel, 48 h
UO-31 = test system: UO-31
SF-295 = test system: SF-295
A549 = test system: A549
TK-10 = test system: TK-10
SNB-19 = test system: SNB-19
DMS-273 = test system: DMS-273
A498 = test system: A498
OVCAR-4 = test system: OVCAR-4
HCT-116 = test system: HCT-116
HCC 2998 = test system: HCC 2998
LXFL 529 = test system: LXFL 529
K562 = test system: K562
HOP-62 = test system: HOP-62
SNB-78 = test system: SNB-78
COLO 205 = test system: COLO 205
SK-MEL-2 = test system: SK-MEL-2
SK-MEL-28 = test system: SK-MEL-28
RXF 393 = test system: RXF 393
DMS-114 = test system: DMS-114
M19-MEL = test system: M19-MEL
KM12 = test system: KM12
HCT-15 = test system: HCT-15
RPMI-8226 = test system: RPMI-8226
MOLT-4 = test system: MOLT-4
HOP-92 = test system: HOP-92
SK-OV-3 = test system: SK-OV-3
SF-539 = test system: SF-539
KM-20L2 = test system: KM-20L2
786-0 = test system: 786-0
OVCAR-5 = test system: OVCAR-5
CAKI-1 = test system: CAKI-1
SNB-75 = test system: SNB-75
Malme-3M = test system: Malme-3M
ACHN = test system: ACHN
LOX IMVI = test system: LOX IMVI
IGROV-1 = test system: IGROV-1
NCI-H226 = test system: NCI-H226
NCI-H460 = test system: NCI-H460
HT-29 = test system: HT-29
M14 = test system: M14
HL-60 = test system: HL-60
OVCAR-3 = test system: OVCAR-3
CCRF-CEM = test system: CCRF-CEM
SK-MEL-5 = test system: SK-MEL-5
SW-620 = test system: SW-620
SF-268 = test system: SF-268
UACC-257 = test system: UACC-257
NCI-H23 = test system: NCI-H23
NCI-H522 = test system: NCI-H522
UACC-62 = test system: UACC-62
SN12C = test system: SN12C
DLD-1 = test system: DLD-1
U-251 = test system: U-251
EKVX = test system: EKVX
OVCAR-8 = test system: OVCAR-8
XF498 = test system: XF498
SR = test system: SR

## O=C(CC1=Nc2nnc(-c3nnc4n3C(=O)C(CC(=O)C3CC3)=N4)n2C1=O)C1CC1
UO-31
  GI50: > 100 µM (inactive)
SF-295
  GI50: > 100 µM (inactive)
A549
  GI50: > 100 µM (inactive)
TK-10
  GI50: > 100 µM (inactive)
SNB-19
  GI50: > 100 µM (inactive)
DMS-273
  GI50: > 100 µM (inactive)
A498
  GI50: > 100 µM (inactive)
OVCAR-4
  GI50: > 100 µM (inactive)
HCT-116
  GI50: > 100 µM (inactive)
HCC 2998
  GI50: > 100 µM (inactive)
LXFL 529
  GI50: > 100 µM (inactive)
K562
  GI50: > 100 µM (inactive)
HOP-62
  GI50: > 100 µM (inactive)
SNB-78
  GI50: > 100 µM (inactive)
COLO 205
  GI50: > 100 µM (inactive)
SK-MEL-2
  GI50: > 100 µM (inactive)
SK-MEL-28
  GI50: > 100 µM (inactive)
RXF 393
  GI50: > 100 µM (inactive)
DMS-114
  GI50: > 100 µM (inactive)
M19-MEL
  GI50: > 100 µM (inactive)
KM12
  GI50: > 100 µM (inactive)
HCT-15
  GI50: > 100 µM
RPMI-8226
  GI50: > 100 µM (inactive)
MOLT-4
  GI50: > 100 µM (inactive)
HOP-92
  GI50: > 100 µM (inactive)
SK-OV-3
  GI50: > 100 µM (inactive)
SF-539
  GI50: > 100 µM (inactive)
KM-20L2
  GI50: > 100 µM (inactive)
786-0
  GI50: > 100 µM (inactive)
OVCAR-5
  GI50: > 100 µM (inactive)
CAKI-1
  GI50: > 100 µM (inactive)
SNB-75
  GI50: > 100 µM (inactive)
Malme-3M
  GI50: > 100 µM (inactive)
ACHN
  GI50: > 100 µM (inactive)
LOX IMVI
  GI50: > 100 µM (inactive)
IGROV-1
  GI50: > 100 µM (inactive)
NCI-H226
  GI50: > 100 µM (inactive)
NCI-H460
  GI50: > 100 µM (inactive)
HT-29
  GI50: > 100 µM (inactive)
M14
  GI50: > 100 µM (inactive)
HL-60
  GI50: > 100 µM (inactive)
OVCAR-3
  GI50: > 100 µM (inactive)
CCRF-CEM
  GI50: > 100 µM (inactive)
SK-MEL-5
  GI50: > 100 µM (inactive)
SW-620
  GI50: > 100 µM (inactive)
SF-268
  GI50: > 100 µM (inactive)
UACC-257
  GI50: > 100 µM (inactive)
NCI-H23
  GI50: > 100 µM (inactive)
NCI-H522
  GI50: > 100 µM (inactive)
UACC-62
  GI50: > 100 µM (inactive)
SN12C
  GI50: > 100 µM (inactive)
DLD-1
  GI50: > 100 µM (inactive)
U-251
  GI50: > 100 µM (inactive)

## C=C1COC(/C=C(\C)CC/C=C(\C)CCl)C1 (stereo not given)
UO-31
  GI50: > 100 µM (inactive)
SF-295
  GI50: > 100 µM (inactive)
A549
  GI50: > 100 µM (inactive)
TK-10
  GI50: > 100 µM (inactive)
EKVX
  GI50: > 100 µM (inactive)
SNB-19
  GI50: > 100 µM (inactive)
DMS-273
  GI50: > 100 µM (inactive)
A498
  GI50: > 100 µM (inactive)
OVCAR-4
  GI50: > 100 µM (inactive)
HCT-116
  GI50: > 100 µM (inactive)
HCC 2998
  GI50: > 100 µM (inactive)
LXFL 529
  GI50: > 100 µM (inactive)
K562
  GI50: > 100 µM (inactive)
HOP-62
  GI50: > 100 µM (inactive)
SNB-78
  GI50: > 100 µM (inactive)
COLO 205
  GI50: > 100 µM (inactive)
SK-MEL-2
  GI50: > 100 µM (inactive)
SK-MEL-28
  GI50: > 100 µM (inactive)
RXF 393
  GI50: > 100 µM (inactive)
DMS-114
  GI50: > 100 µM (inactive)
M19-MEL
  GI50: > 100 µM (inactive)
KM12
  GI50: > 100 µM (inactive)
HCT-15
  GI50: > 100 µM
RPMI-8226
  GI50: > 100 µM (inactive)
MOLT-4
  GI50: > 100 µM (inactive)
HOP-92
  GI50: 35.1 µM (inactive)
OVCAR-8
  GI50: > 100 µM (inactive)
SK-OV-3
  GI50: > 100 µM (inactive)
SF-539
  GI50: > 100 µM (inactive)
KM-20L2
  GI50: > 100 µM (inactive)
786-0
  GI50: > 100 µM (inactive)
OVCAR-5
  GI50: > 100 µM (inactive)
XF498
  GI50: > 100 µM (inactive)
SNB-75
  GI50: > 100 µM (inactive)
ACHN
  GI50: > 100 µM (inactive)
LOX IMVI
  GI50: > 100 µM (inactive)
IGROV-1
  GI50: > 100 µM (inactive)
NCI-H226
  GI50: > 100 µM (inactive)
NCI-H460
  GI50: > 100 µM (inactive)
HT-29
  GI50: > 100 µM (inactive)
M14
  GI50: > 100 µM (inactive)
HL-60
  GI50: > 100 µM (inactive)
OVCAR-3
  GI50: > 100 µM (inactive)
CCRF-CEM
  GI50: > 100 µM (inactive)
SK-MEL-5
  GI50: > 100 µM (inactive)
SW-620
  GI50: > 100 µM (inactive)
SF-268
  GI50: > 100 µM (inactive)
NCI-H23
  GI50: > 100 µM (inactive)
NCI-H522
  GI50: > 100 µM (inactive)
UACC-62
  GI50: > 100 µM (inactive)
SN12C
  GI50: > 100 µM (inactive)
DLD-1
  GI50: > 100 µM (inactive)
U-251
  GI50: > 100 µM (inactive)

## CCOC(=O)N1CCC(N[C@@H]2c3cc4c(cc3[C@@H](c3cc(OC)c(O)c(OC)c3)[C@H]3C(=O)OC[C@@H]32)OCO4)CC1
UO-31
  GI50: 1.08 µM (active)
SF-295
  GI50: 0.597 µM (active)
EKVX
  GI50: 1.97 µM (inactive)
SNB-19
  GI50: 1.05 µM (active)
A498
  GI50: 0.262 µM (active)
HCT-116
  GI50: 2.7 µM (inactive)
LXFL 529
  GI50: 6.78 µM (inactive)
K562
  GI50: 2 µM (inactive)
HOP-62
  GI50: 0.853 µM (active)
SNB-78
  GI50: 16 µM (inactive)
COLO 205
  GI50: 6 µM (inactive)
SK-MEL-2
  GI50: 6.03 µM (inactive)
SK-MEL-28
  GI50: 9.29 µM (inactive)
M19-MEL
  GI50: 2.07 µM (inactive)
KM12
  GI50: 2.07 µM (inactive)
HCT-15
  GI50: 0.771 µM
HOP-92
  GI50: 0.895 µM (active)
OVCAR-8
  GI50: 2.18 µM (inactive)
SK-OV-3
  GI50: 0.966 µM (active)
786-0
  GI50: 0.764 µM (active)
CAKI-1
  GI50: 0.647 µM (active)
SNB-75
  GI50: 2.18 µM (inactive)
Malme-3M
  GI50: 1.79 µM (inactive)
ACHN
  GI50: 0.289 µM (active)
LOX IMVI
  GI50: 1.01 µM (active)
IGROV-1
  GI50: 2.95 µM (inactive)
NCI-H460
  GI50: 0.0352 µM (active)
HT-29
  GI50: 2.63 µM (inactive)
M14
  GI50: 1.5 µM (inactive)
OVCAR-3
  GI50: 6.12 µM (inactive)
CCRF-CEM
  GI50: 0.465 µM (active)
SK-MEL-5
  GI50: 1.12 µM (active)
SW-620
  GI50: 2.19 µM (inactive)
SF-268
  GI50: 2.73 µM (inactive)
UACC-257
  GI50: 6.55 µM (inactive)
NCI-H23
  GI50: 0.501 µM (active)
UACC-62
  GI50: 0.771 µM (active)
DLD-1
  GI50: 6.68 µM (inactive)
U-251
  GI50: 1 µM (active)

## O=C1c2ccccc2C(=O)c2c1ccc(O)c2O [ATHRAQUINONES A]
UO-31
  GI50: 36.6 µM (inactive)
SF-295
  GI50: 57.3 µM (inactive)
SR
  GI50: 34.8 µM (inactive)
A549
  GI50: > 10 µM (inactive)
TK-10
  GI50: > 100 µM (inactive)
EKVX
  GI50: 26.9 µM (inactive)
SNB-19
  GI50: 61.2 µM (inactive)
DMS-273
  GI50: 35.9 µM (inactive)
A498
  GI50: 39.5 µM (inactive)
OVCAR-4
  GI50: 32.1 µM (inactive)
HCT-116
  GI50: 32.4 µM (inactive)
HCC 2998
  GI50: 33.1 µM (inactive)
LXFL 529
  GI50: 43.2 µM (inactive)
K562
  GI50: 36.1 µM (inactive)
HOP-62
  GI50: > 100 µM (inactive)
COLO 205
  GI50: 34.5 µM (inactive)
SK-MEL-2
  GI50: 43 µM (inactive)
SK-MEL-28
  GI50: > 100 µM (inactive)
RXF 393
  GI50: 40.8 µM (inactive)
M19-MEL
  GI50: 72.4 µM (inactive)
KM12
  GI50: 57.8 µM (inactive)
HCT-15
  GI50: 37.1 µM
RPMI-8226
  GI50: 36.5 µM (inactive)
MOLT-4
  GI50: 32.4 µM (inactive)
HOP-92
  GI50: 38.6 µM (inactive)
OVCAR-8
  GI50: 31.3 µM (inactive)
SF-539
  GI50: 42.6 µM (inactive)
786-0
  GI50: 63 µM (inactive)
OVCAR-5
  GI50: > 100 µM (inactive)
CAKI-1
  GI50: 39.5 µM (inactive)
XF498
  GI50: 39.1 µM (inactive)
SNB-75
  GI50: 28.2 µM (inactive)
ACHN
  GI50: 34.8 µM (inactive)
LOX IMVI
  GI50: 37.8 µM (inactive)
IGROV-1
  GI50: 35.6 µM (inactive)
NCI-H226
  GI50: 94.8 µM (inactive)
NCI-H460
  GI50: 38.9 µM (inactive)
HT-29
  GI50: 36 µM (inactive)
M14
  GI50: 77.6 µM (inactive)
OVCAR-3
  GI50: 32.9 µM (inactive)
CCRF-CEM
  GI50: 36.6 µM (inactive)
SW-620
  GI50: 37.9 µM (inactive)
SF-268
  GI50: 32 µM (inactive)
UACC-257
  GI50: 71.1 µM (inactive)
NCI-H23
  GI50: 41.6 µM (inactive)
NCI-H522
  GI50: 39.4 µM (inactive)
UACC-62
  GI50: 25.4 µM (inactive)
SN12C
  GI50: 42.3 µM (inactive)
DLD-1
  GI50: 43.4 µM (inactive)
U-251
  GI50: 38.6 µM (inactive)
